Assays:
[1] = Chemical degradation on storage in ethanol/HFA134a solution; type: physicochemical
[2] = Solubility in ethanol/HFA134a and ethanol/HFA227 mixtures; type: physicochemical; conditions: mixtures of ethanol/HFA134a and ethanol/HFA227

Compound | chemical degradation on storage [1] | solubility relative to racemic salmeterol xinafoate [2]
OCc1cc(C(O)CNCCCCCCOCCCCc2ccccc2)ccc1O (stereo not drawn) [salmeterol, 4-hydroxy-α^1-[[[6-(4-phenylbutoxy)hexyl]amino]methyl]-1,3-benzenedimethanol] | shows a tendency to exhibit chemical degradation | 
CCC(=O)O[C@]1(C(=O)SCF)[C@H](C)C[C@H]2[C@@H]3C[C@H](F)C4=CC(=O)C=C[C@]4(C)[C@@]3(F)[C@@H](O)C[C@@]21C [fluticasone propionate, (6a, 11b, 16a, 17a)-6,9-difluoro-11-hydroxy-16-methyl-3-oxo-17-(1-oxopropoxy) androsta-1,4-diene-17-carbothioic acid, S-fluoromethyl ester] | quite stable to chemical degradation | 
OCc1cc(C(O)CNCCCCCCOCCCCc2ccccc2)ccc1O (stereo not drawn) [salmeterol base, 4-hydroxy-α^1-[[[6-(4-phenylbutoxy)hexyl]amino]methyl]-1,3-benzenedimethanol] |  | substantially more soluble
O=C(O)c1ccc2ccccc2c1O.OCc1cc(C(O)CNCCCCCCOCCCCc2ccccc2)ccc1O (stereo not shown) [R-salmeterol xinafoate] |  | significantly more soluble
